The text below walks through data of PubChem BioAssay (NCI).

Common to all, as to test: NCI anticancer screen, dose series, 48 h
For assay [1], the system named is EKVX NSCLC.
Assay [2] has as its system OVCAR-3 ovarian.
In assay [3] the test system is MDA-MB-435.
Assay [4] deals with CAKI-1 renal.
Assay [5] has as its system MDA-N.
The subject of assay [6] is A549 NSCLC.
Assay [7] relates to SF-295 CNS.
Assay [8] concerns ACHN renal.
Assay [9] concerns NCI-H226 lung.
For assay [10], the system named is HOP-92 NSCLC.

Each structure is given as a SMILES string.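 Five compound concentrations were applied to cells in 96-well plates for 48 hours; endpoints were derived by simple linear interpolation of the resulting dose-response curve. The concentration for 50% growth inhibition is given as GI50. TGI: total growth inhibition.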

`O=c1nc2ccc3sc4ccccc4c(=O)c3n2c(=O)[nH]1`: the TGI in assay [1], in [2], in assay [3], in assay [4], in assay [5] and in assay [6] was over 100 µM in each case. Moreover, the TGI in assay [7], in assay [8] and in [9] was over 100 µM throughout.
Turning to `O=c1c2cc(Br)ccc2ncn1COCc1ccccc1`, the TGI in assay [1], in assay [2], in assay [3], in assay [6], in assay [7] and in assay [10] was over 100 µM each time. The TGI in assay [8] was 74 µM; in [9], over 1 µM.
As for `C=CCc1ccccc1C1CC2(C(=O)OC)OC1C(C(=O)OC)=C2C(=O)OC` (configuration not stated), the TGI in [1], in assay [2], in [3], in [4], in [5] and in assay [6] was over 10 µM in each case. In addition, the TGI in assay [7], in assay [8] and in [9] was over 10 µM throughout.
As to `NC(=S)N/N=C1\CCCC1C(O)(C(F)(F)Cl)C(F)(F)Cl` (configuration not stated), the TGI in assay [1], in [2], in assay [3], in [4], in [6] and in assay [7] was over 10 µM each time. Also, the TGI in assay [10], in assay [8] and in assay [9] was over 10 µM in each case.
`Cn1ccc2c(c1=O)C(=O)OC2(C)C`: the TGI in [1], in [2], in [4], in assay [5], in assay [6] and in [7] was over 100 µM throughout. Besides, the TGI in [8] and in assay [9] was over 100 µM throughout.
For the compound `COc1cc(CNC(=S)CCCCCCCCCCC(C)C)ccc1O`, the TGI in assay [1] is over 100 µM; in [3], over 100 µM; in [6], over 100 µM; in assay [7], over 100 µM; in [10], 68 µM; in [8] it was over 100 µM. Moreover, the TGI in [9] was determined as 86.3 µM.
As to `C=CCOC1(CC=C)C(=O)OC2C(O)COC21O` (configuration not stated), the TGI in assay [1], in [2], in assay [3], in assay [4], in [5] and in assay [6] was over 100 µM throughout. Further, the TGI in assay [7], in assay [8] and in assay [9] was over 100 µM in each case.
On to `O=c1[nH]c2cc([N+](=O)[O-])c(Nc3c4ccccc4nc4ccccc34)c([N+](=O)[O-])c2[nH]1`, for which the TGI is 7.47 µM in assay [1]; 9.33 µM in assay [2]; 8.62 µM in [3]; 7.96 µM in assay [4]; 12.3 µM in assay [6]; 11.2 µM in [7]. In addition, the TGI in [10] stood at 18.5 µM; in [8], 16.7 µM; in [9], 15 µM.
Regarding `COc1cc2oc(=O)cc(C)c2c(OC)c1OC(C)=O`, the TGI in assay [1], in assay [2], in assay [3], in assay [5], in [6] and in assay [7] was over 100 µM throughout. In addition, the TGI in [8] and in [9] was over 100 µM in each case.
Take `CC(C#N)N(CCc1ccccc1)C(=O)c1ccccc1` (configuration not stated): the TGI in assay [1], in assay [2], in assay [3], in [4], in assay [5] and in [6] was over 100 µM throughout. Further, the TGI in assay [7], in [8] and in assay [9] was over 100 µM each time.
As for `CC(C)(C)C(=O)N1CCN(C=O)C1=S`, the TGI in assay [1], in [2], in assay [3], in assay [4], in assay [6] and in [7] was over 100 µM in each case. Besides, the TGI in [10] is 52.9 µM; in [8], over 100 µM; in [9], over 100 µM.
In the case of `Cc1nc2c(n1-c1ccccc1)C(=O)c1ccccc1C2=O`, the TGI in assay [1] was over 100 µM; in [2] it was 54.1 µM; in assay [4] it was over 100 µM; in [6], over 100 µM; in [7], over 100 µM; in assay [8] it was over 100 µM. Besides, in assay [9], the TGI was over 100 µM.
Take `CC1=CC[C@](C)(O)[C@@]2(C)CC[C@H]3C(=C(C)C)C(=O)C[C@]3(C)C[C@H]12`: the TGI in assay [1], in assay [2], in assay [3], in assay [4], in assay [6] and in assay [7] was over 50 µM in each case. For the same compound, the TGI in [10], in assay [8] and in [9] was over 50 µM each time.
On to `CCN1CCCn2c(=O)[nH]c3cc(Br)cc1c32`, for which the TGI in [1], in assay [2], in [3], in assay [4], in assay [5] and in [6] was over 100 µM in each case. For the same compound, the TGI in assay [7], in assay [8] and in assay [9] was over 100 µM throughout.
Regarding `O=C(O)Cc1ccccc1CCc1ccccc1Cl`, the TGI in assay [1], in assay [2], in [4], in assay [6], in assay [7] and in assay [10] was over 100 µM each time. In assay [9], this compound displayed a TGI of over 100 µM.
Regarding `COc1ccc(NC(=O)CC(=O)N2N=C(N(c3ccccc3)c3ccccc3)CC2c2ccccc2)cc1` (configuration not stated), the TGI in [1], in [2], in assay [3], in assay [4], in [6] and in [7] was over 100 µM in each case. For the same compound, the TGI in assay [10], in assay [8] and in assay [9] was over 100 µM in each case.
`CCOC(=O)CCC(NC(=O)OCc1ccccc1)C(=O)NC(CCC(=O)OCC)C(=O)NC(CCC(=O)OCC)C(=O)NNC(=O)OC(C)(C)C` (configuration not stated): the TGI in [1], in assay [5], in [6], in assay [10], in assay [8] and in assay [9] was over 100 µM throughout.
For `COc1cccc(NC(=O)CC(=O)N2N=C(C)C(N=Nc3ccc(C(=O)O)cc3)C2=O)c1` (configuration not stated), the TGI in [1], in [2], in assay [3], in [4], in [5] and in [6] was over 100 µM throughout. Besides, the TGI in [7] and in assay [8] was over 100 µM each time.
With `O=C1/C(=C/c2ccc(O)cc2)CCC1CNc1ccccc1` (configuration not stated), the TGI in assay [1] was determined as 33.6 µM; in [2], 28.4 µM; in assay [3], 36.2 µM; in assay [4], 26.5 µM; in [6], 34.8 µM; in [7], 29.5 µM. The TGI in assay [10] is 27.9 µM; in [8], 24.8 µM; in assay [9] it was 37.9 µM.
With `CCOC(=O)c1c(N)sc2c1C(C(=O)OCC)CCC2` (configuration not stated), the TGI in assay [1], in [5], in [6], in [10], in [8] and in assay [9] was over 100 µM each time.
In the case of `NNC(=O)Cn1ccnn1`, the TGI in assay [1], in [3], in assay [4], in assay [6], in [7] and in assay [10] was over 100 µM throughout. Further, in assay [8], the TGI was over 100 µM.
Turning to `Cc1cc2nc(-c3c(N)ncc(C#N)c3-c3ccc(Cl)cc3)[nH]c2cc1C`, the GI50 was 14.4 µM in assay [1]; 13.9 µM in assay [2]; 26.2 µM in assay [3]; 12.1 µM in assay [4]; 4.17 µM in assay [6]; 10 µM in assay [7]. For the same compound, the GI50 in assay [10] is 0.275 µM; in assay [8], 11.1 µM; in assay [9] it was 15 µM. Further, the TGI was 76.7 µM in assay [1]; 76 µM in [2]; over 100 µM in [3]; over 100 µM in [4]; 24.9 µM in [6]; 27.5 µM in [7]. Further, the TGI in assay [10] is 5.23 µM; in [8], over 100 µM; in [9], 46.3 µM.
Turning to `C[C@]12CCC(=O)C=C1CC[C@@H]1[C@@H]2[C@@H](O)C[C@@]2(C)[C@H]1CC[C@]2(O)C(=O)COC(=O)CCC1CCCC1`, the TGI in [1], in assay [2], in assay [4], in [6], in assay [7] and in assay [10] was over 100 µM each time. Moreover, the TGI in [8] and in assay [9] was over 100 µM in each case.
As to `O=NN1CCCS1(=O)=O`, the TGI in [1], in assay [2], in [4], in [6], in [7] and in assay [8] was over 100 µM each time. Further, the TGI in assay [9] was over 100 µM.
As for `CCCCCCCCCCCCCCCCCCNC(=O)OCC(CNS(=O)(=O)CCC[n+]1cccc2ccccc21)COC` (configuration not stated), the TGI in [1] came to 65.7 µM; in assay [2], 48.5 µM; in [3], 4.94 µM; in [4], 51.3 µM; in [6], 25.9 µM; in assay [7] it was 30.3 µM. For the same compound, the TGI in assay [10] was 4.01 µM; in assay [8] it was 29.9 µM; in [9], 3.84 µM.
`O=c1c(O)cccn1C1OC(CO)C(O)C1O` (configuration not stated): the TGI in assay [1], in assay [4], in assay [6], in [10], in assay [8] and in assay [9] was over 100 µM each time.
As to `C[PH+](c1nc2ccccc2nc1[PH+](C)C(C)(C)C)C(C)(C)C.C[PH+](c1nc2ccccc2nc1[PH+](C)C(C)(C)C)C(C)(C)C.[Au+].[Cl-]` (configuration not stated), the GI50 in [3] was 0.0345 µM; in assay [4] it was 0.222 µM; in assay [10] it was 0.0225 µM; in assay [8] it was 0.113 µM; in assay [9], 0.0539 µM. The TGI came to 0.158 µM in [3]; 0.537 µM in assay [4]; 0.0681 µM in assay [10]; 0.835 µM in assay [8]; 2.44 µM in assay [9].
In the case of `CC(C)(Cc1ccccc1)N1C(=O)N1C(C)(C)Cc1ccccc1`, the TGI was over 100 µM in assay [1]; over 100 µM in [2]; over 100 µM in assay [3]; over 100 µM in assay [4]; over 100 µM in [5]; 77.7 µM in assay [6]. Besides, the TGI in [9] worked out at 46 µM.
Consider `COc1ccc2ccccc2c1CN1CCOCCOCCN(Cc2c(OC)ccc3ccccc23)CCOCCOCC1`, for which the TGI in assay [1] was over 100 µM; in [2] it was over 100 µM; in assay [4], over 100 µM; in [6], over 100 µM; in [7], over 100 µM; in assay [10], over 70 µM. The TGI in assay [8] and in assay [9] was over 100 µM each time.
With `N#C/C(=C1/c2cc([N+](=O)[O-])ccc2-c2c1cc([N+](=O)[O-])cc2[N+](=O)[O-])N1CCCCC1`, the TGI in assay [1], in [2], in assay [3], in [4], in assay [5] and in [6] was over 100 µM each time. For the same compound, the TGI in assay [7], in [8] and in assay [9] was over 100 µM in each case.
For `Cc1ccc(/C=C2/NC(=S)SC2=O)cc1`, the TGI in [1] was over 100 µM; in assay [2], over 100 µM; in assay [3] it was over 100 µM; in [4] it was 51.1 µM; in [6], over 100 µM; in assay [7], over 100 µM. In addition, the TGI in [10], in assay [8] and in assay [9] was over 100 µM throughout.
